In general, Log P refers to a log measure of how a compound divides between an organic and an aqueous phase.

The source of these data is US20190290656A1, “PT(IV) PRODRUGS” (YISSUM RESEARCH DEVELOPMENT COMPANY OF THE HEBREW …, priority 2015, published 2019).

Like-named read-outs stand apart in the source and are kept apart here.

Data set [1] concerns MCF-7 cells. Nature of the data set: MTT cytotoxicity assay, MCF-7. In kind it is cell-based, human. The procedure:
(§1) Cisplatin (CDDP) and oxaliplatin (OXP) were dissolved just before the experiment in a 0.9% NaCl solution.
(§2) Human prostate adenocarcinoma (PC3) cells were obtained from European Collection of Cell Cultures (ECACC, Salisbury, UK). Human ovarian cancer cell lines A2780 and its cisplatin resistant variant, A2780cisR, were kindly provided by Prof.
(§3) Triplicate cultures were established for each treatment.
Background: Tetrazolium assays rely on reduction of a dye to a coloured formazan, in cell work by metabolically active cells.

A further data set has as its system A498 cells. Nature of the data set: MTT cytotoxicity assay, A498. In kind it is cell-based, human. Conditions: A498, 72 h exposure, read-out: IC50 (median growth inhibitory concentration). The procedure: (§4) Platinum(IV) complexes were dissolved in DMSO to stock solutions of 1 mg/mL just before the experiment, and a calculated amount of drug solution was added to the cell growth medium to a final solvent concentration of 0.5%, which had no discernible effect on cell killing. Cisplatin (CDDP) and oxaliplatin (OXP) were dissolved just before the experiment in a 0.9% NaCl solution.
as §2
(§5) Cancer Res. 1988, 48, 589-601]. […] Triplicate cultures were established for each treatment.

A further data set relates to A375 cells. Nature of the data set: MTT cytotoxicity assay, A375. Conditions: A375, 72 h exposure, MTT (Table 1); read-out: IC50 (median growth inhibitory concentration). In kind it is cell-based, human. The procedure:
(§6) Cisplatin (CDDP) and oxaliplatin (OXP) were dissolved just before the experiment in a 0.9% NaCl solution. […]
as §5
(§7) MTT assay. […] Triplicate cultures were established for each treatment.
(§8) The two dimers, 3a and 3b, as well as compounds 1a and 2a were screened against six human cancer cell lines representative of lung (H157), colon (HCT-15), cervical (A431), ovarian (2008) and pancreatic (PSN1) cancers, along with melanoma (A375). Cytotoxicity was evaluated by means of the MTT test after 72 h of treatment and the in vitro antitumor potential of newly synthesized derivatives was compared to that of the reference metallo-drugs CDDP and OXP.

In the next data set the test system is A2780 cells. Nature of the data set: MTT cytotoxicity assay, A2780. It counts as cell-based, human. The note with it: A2780, 72 h exposure, MTT; read-out: IC50 (median growth inhibitory concentration). The procedure:
as §4, §2, §5

Data set [2] can be described thus: octanol/water partition, shake-flask method. It counts as physicochemical. The procedure:
To quantify the hydrophobicity of the platinum complexes, partition coefficients (log P) values for octanol/water partition were measured using the shake-flask method.

A further data set deals with PC3 cells. Nature of the data set: MTT cytotoxicity assay, PC3. It counts as cell-based, human. Conditions: PC3, 72 h exposure, read-out: IC50 (median growth inhibitory concentration). The procedure:
as §1, §2, §3

For another data set, the system named is A549 cells. In words: MTT cytotoxicity assay, A549. It counts as cell-based, human. As to the method: as §1, §2, §3
The subject of another data set is nine cancer cell lines. Nature of the data set: MTT cytotoxicity, over the nine cancer cell lines. The note with it: for average fold more potent than cisplatin: average over cell lines.
The test system of a further data set is A2780cisR cells. Nature of the data set: MTT cytotoxicity assay, A2780cisR (cisplatin resistant). In kind it is cell-based, human. The note with it: A2780cisR, 72 h exposure, MTT; read-out: IC50 (median growth inhibitory concentration). The procedure:
as §4, §2, §5

In a further data set the test system is HCT-15 cells. Nature of the data set: MTT cytotoxicity assay, HCT-15. It counts as cell-based, human. The note with it: HCT-15, 72 h exposure, MTT (Table 1); read-out: IC50 (median growth inhibitory concentration). As to the method:
as §6, §5, §7, §8

The next data set deals with BxPC3 cells. Nature of the data set: MTT cytotoxicity assay, BxPC3. In kind it is cell-based, human.
Data set [3] concerns Lewis lung carcinoma (LLC). Nature of the data set: In vivo efficacy study, Lewis lung carcinoma mouse model. Also noted: species or system C57BL mice. Conditions: oral vs cisplatin ip. As to the method: A preliminary in vivo efficacy study was carried out on a mouse model (see Table 3 below):
Lewis lung carcinoma (LLC) was implanted i.m. (2·10^6 cells inoculum) into the right hind leg of 8-week old inbred C57BL mice (24±3 g body weight). Chemotherapy was delayed until the tumor became visible (day 7).

Data set [4] deals with MCF-7 cells. Nature of the data set: Nuclear DNA fragmentation ELISA, MCF-7. In kind it is cell-based, human. Conditions: MCF-7, 24 h, IC50 concentrations. The source says: FIGS. 4A-4C describe: FIG. 4A—Nuclear DNA fragmentation. […] Quantitative estimation of DNA fragmentation was obtained with an ELISA test. Data are the means of five independent experiments. Error bars indicate SD. […] FIG. 4C—Caspase activity. […] Data are the means of at least three independent experiments. Error bars indicate SD.
To gain more insights into the mode of action of newly synthesized Pt(IV) derivatives, compounds 1 and 6 were chosen for further experiments. In particular, their capacity to induce apoptosis against human breast MCF-7 cells treated with equitoxic concentrations (IC50 values) of these drugs was evaluated and compared. Nuclear DNA fragmentation and apoptosome complex formation are critical steps in the apoptotic process. […] Apoptotic cell death induction was confirmed through a Hoechst 33342 staining.
A general note: In an ELISA, binding on a coated surface is turned into a signal by an enzyme label.

In data set [5] the test system is Histone deacetylase (HDAC). Nature of the data set: Histone deacetylase assay (Fluor-de-Lys) in MCF-7 cells. It counts as cell-based, human. As to the method: Histone deacetylase activity was determined using Fluor-de-Lys® HDAC fluorometric activity assay kit (Enzo Life Sciences International, Inc., Plymount Meeting, Pa., U.S.A.). […] Fluorescence was measured using a Fluoroskan Ascent FL (Labsystem, Finland) plate reader, with excitation at 360 nm and emission at 460 nm. For comparison purpose, the HDAC activity was also measured in nuclear extracts of MCF-7-treated cells by means of the same fluorometric activity assay kit. In this latter case, MCF-7 nuclear extracts were obtained as follow: cell pellets were re-suspended in lysis buffer [Tris.HCl (10 mM, pH 8.0), KCl (60 mM), EDTA (1.2 mM), DTT (1 mM), PMSF (0.05 mM), NP-40 (0.05%)] and kept on ice for 10 min. Subsequently, samples were centrifuged at 1000 g and re-suspended in the nuclear extraction buffer [Tris.HCl (20 mM, (pH 8.0), NaCl (420 mM), MgCl2 (0.7 mM), EDTA (0.25 mM), glycerol (25%)] for 30 min at 4° C., and then centrifuged at 15000 g for 15 min at 4° C.
The complexes described here were specifically designed to release either VPA of PhB inside the cells in the hope that they will inhibit HDAC activity paving the way for more efficient DNA platination. Thus, in addition to measuring the levels of DNA platination, we also measured the ability of these pro-drugs to inhibit HDAC activity in cells. […] For comparison purposes, the HDAC inhibitory effect determined by tested complexes was also assayed in isolated nuclei of MCF-7 treated cells (FIG. 3B).
The HDAC activity was determined by the Fluor de Lys® Fluorescent Cellular Activity Assay (Enzo Life Sciences).
Also, MCF-7 cells were incubated for 24 h with increasing concentrations of compounds I-VIII and their HDAC activity was determined. The IC50 values for the inhibition of HDAC activity in the cells are depicted in FIG. 3C.

Consider `[NH2][Pt]([NH2])([Cl])([Cl])([O]C(=O)CCCc1ccccc1)[O]C(=O)CCCc1ccccc1` [Compound VI, ctc-[Pt(NH3)2(C10H11O2)2Cl2]], for which the “times more effective/potent than cisplatin” value with MCF-7 cells [1] (MCF-7) is on record as about 100 fold; in the data set with BxPC3 cells (BxPC3) it was about 60 fold. Moreover, the IC50 in the data set on MCF-7 cells [1] (MCF-7, 72 h exposure, MTT, read-out: IC50 (median growth inhibitory concentration)) turned out to be 180 ± 30 nM; with A498 cells it was 430 ± 20 nM; with A375 cells it was 160 ± 20 nM; in the data set on A2780 cells it was 140 nM; in the data set on PC3 cells, 410 ± 60 nM; in the data set with A549 cells (A549, 72 h exposure, MTT, read-out: IC50 (median growth inhibitory concentration)), 170 ± 40 nM. The IC50 is 230 nM with nine cancer cell lines (read-out: average IC50 values for the nine cancer cell lines, mean over nine cell lines, 72 h MTT); 120 to 430 nM in the data set on nine cancer cell lines (read-out: range of IC50 values over the cell lines, lowest-highest over nine cell lines); 120 nM in the data set on A2780cisR cells; 310 ± 40 nM in the data set with HCT-15 cells; 190 ± 10 nM in the data set on BxPC3 cells (BxPC3, 72 h exposure, MTT, read-out: IC50 (median growth inhibitory concentration)). For the same compound, in data set [2], the log partition coefficient (Log P) was −0.73 ± 0.05. Moreover, the “fold more potent than cisplatin” value in the data set with A549 cells (A549) is about 50 fold. In addition, the results for the “average fold more potent than cisplatin” value in the data set on nine cancer cell lines (listed as Ctc-[Pt(NH3)2(PhB)2Cl2]) and with nine cancer cell lines (listed as ctc-[Pt(NH3)2(PhB)2Cl2]) were 50 fold and “about 24 fold”, respectively. Moreover, the “fold improvement in potency on replacing both VPA ligands with PhB (VI vs I)” value in the data set on nine cancer cell lines (on the average) is given as about 5 fold. Further, the “fold more potent than the mono-PhB monoacetate complex” value with nine cancer cell lines (range over cell lines) was 4.6-53 fold. Moreover, the “in vivo efficacy by oral administration (in words)” value in data set [3] was “nearly as effective in this model as cisplatin”. Moreover, in the data set with MCF-7 cells [4], the “times higher induction of nucleosome formation compared with cisplatin” value is 2 fold. Besides, the “IC50 for cellular inhibition of HDAC activity (in words)” value in [5] (MCF-7, 24 h, increasing concentrations) is on record as “highest inhibitory effect”. Also, the “inhibition of HDAC activity” value in data set [5] (MCF-7, 24 h incubation with IC50 concentrations) was “approximately 70%”.
